According to patent publication US20230148214A1, “INDAZOLES AND AZAINDAZOLES AS LRRK2 INHIBITORS” (ESCAPE Bio, Inc., priority 2020, published 2023):

What was measured:
LRRK2 G2019S = target: T1, LRRK2 G2019S (Homo sapiens, UniProt Q5S007, G2019S); assay: LRRK2 Kinase Activity Assay (LanthaScreen TR-FRET), G2019S; format: biochemical; conditions: recombinant G2019S-LRRK2, 25 μM ATP, 400 nM LRRKtide, 60 min; class symbols
T1 construct: purchased Life Technologies PV4881
Method in brief: (§1)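 Recombinant wild-type or G2019S LRRK2 incubated with fluorescein-labeled LRRKtide (ERM-based) peptide, ATP and serially diluted compound for 60 min at room temperature.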

LRRK2 WT = target: T2, LRRK2 WT (Homo sapiens, UniProt Q5S007); assay: LRRK2 Kinase Activity Assay (LanthaScreen TR-FRET), wild type; format: biochemical; conditions: recombinant wild type LRRK2, 25 μM ATP, 400 nM LRRKtide, 60 min; class symbols
T2 construct: purchased Life Technologies PR8604B
Method in brief: as §1

T2 sequence (Q5S007 whole entry): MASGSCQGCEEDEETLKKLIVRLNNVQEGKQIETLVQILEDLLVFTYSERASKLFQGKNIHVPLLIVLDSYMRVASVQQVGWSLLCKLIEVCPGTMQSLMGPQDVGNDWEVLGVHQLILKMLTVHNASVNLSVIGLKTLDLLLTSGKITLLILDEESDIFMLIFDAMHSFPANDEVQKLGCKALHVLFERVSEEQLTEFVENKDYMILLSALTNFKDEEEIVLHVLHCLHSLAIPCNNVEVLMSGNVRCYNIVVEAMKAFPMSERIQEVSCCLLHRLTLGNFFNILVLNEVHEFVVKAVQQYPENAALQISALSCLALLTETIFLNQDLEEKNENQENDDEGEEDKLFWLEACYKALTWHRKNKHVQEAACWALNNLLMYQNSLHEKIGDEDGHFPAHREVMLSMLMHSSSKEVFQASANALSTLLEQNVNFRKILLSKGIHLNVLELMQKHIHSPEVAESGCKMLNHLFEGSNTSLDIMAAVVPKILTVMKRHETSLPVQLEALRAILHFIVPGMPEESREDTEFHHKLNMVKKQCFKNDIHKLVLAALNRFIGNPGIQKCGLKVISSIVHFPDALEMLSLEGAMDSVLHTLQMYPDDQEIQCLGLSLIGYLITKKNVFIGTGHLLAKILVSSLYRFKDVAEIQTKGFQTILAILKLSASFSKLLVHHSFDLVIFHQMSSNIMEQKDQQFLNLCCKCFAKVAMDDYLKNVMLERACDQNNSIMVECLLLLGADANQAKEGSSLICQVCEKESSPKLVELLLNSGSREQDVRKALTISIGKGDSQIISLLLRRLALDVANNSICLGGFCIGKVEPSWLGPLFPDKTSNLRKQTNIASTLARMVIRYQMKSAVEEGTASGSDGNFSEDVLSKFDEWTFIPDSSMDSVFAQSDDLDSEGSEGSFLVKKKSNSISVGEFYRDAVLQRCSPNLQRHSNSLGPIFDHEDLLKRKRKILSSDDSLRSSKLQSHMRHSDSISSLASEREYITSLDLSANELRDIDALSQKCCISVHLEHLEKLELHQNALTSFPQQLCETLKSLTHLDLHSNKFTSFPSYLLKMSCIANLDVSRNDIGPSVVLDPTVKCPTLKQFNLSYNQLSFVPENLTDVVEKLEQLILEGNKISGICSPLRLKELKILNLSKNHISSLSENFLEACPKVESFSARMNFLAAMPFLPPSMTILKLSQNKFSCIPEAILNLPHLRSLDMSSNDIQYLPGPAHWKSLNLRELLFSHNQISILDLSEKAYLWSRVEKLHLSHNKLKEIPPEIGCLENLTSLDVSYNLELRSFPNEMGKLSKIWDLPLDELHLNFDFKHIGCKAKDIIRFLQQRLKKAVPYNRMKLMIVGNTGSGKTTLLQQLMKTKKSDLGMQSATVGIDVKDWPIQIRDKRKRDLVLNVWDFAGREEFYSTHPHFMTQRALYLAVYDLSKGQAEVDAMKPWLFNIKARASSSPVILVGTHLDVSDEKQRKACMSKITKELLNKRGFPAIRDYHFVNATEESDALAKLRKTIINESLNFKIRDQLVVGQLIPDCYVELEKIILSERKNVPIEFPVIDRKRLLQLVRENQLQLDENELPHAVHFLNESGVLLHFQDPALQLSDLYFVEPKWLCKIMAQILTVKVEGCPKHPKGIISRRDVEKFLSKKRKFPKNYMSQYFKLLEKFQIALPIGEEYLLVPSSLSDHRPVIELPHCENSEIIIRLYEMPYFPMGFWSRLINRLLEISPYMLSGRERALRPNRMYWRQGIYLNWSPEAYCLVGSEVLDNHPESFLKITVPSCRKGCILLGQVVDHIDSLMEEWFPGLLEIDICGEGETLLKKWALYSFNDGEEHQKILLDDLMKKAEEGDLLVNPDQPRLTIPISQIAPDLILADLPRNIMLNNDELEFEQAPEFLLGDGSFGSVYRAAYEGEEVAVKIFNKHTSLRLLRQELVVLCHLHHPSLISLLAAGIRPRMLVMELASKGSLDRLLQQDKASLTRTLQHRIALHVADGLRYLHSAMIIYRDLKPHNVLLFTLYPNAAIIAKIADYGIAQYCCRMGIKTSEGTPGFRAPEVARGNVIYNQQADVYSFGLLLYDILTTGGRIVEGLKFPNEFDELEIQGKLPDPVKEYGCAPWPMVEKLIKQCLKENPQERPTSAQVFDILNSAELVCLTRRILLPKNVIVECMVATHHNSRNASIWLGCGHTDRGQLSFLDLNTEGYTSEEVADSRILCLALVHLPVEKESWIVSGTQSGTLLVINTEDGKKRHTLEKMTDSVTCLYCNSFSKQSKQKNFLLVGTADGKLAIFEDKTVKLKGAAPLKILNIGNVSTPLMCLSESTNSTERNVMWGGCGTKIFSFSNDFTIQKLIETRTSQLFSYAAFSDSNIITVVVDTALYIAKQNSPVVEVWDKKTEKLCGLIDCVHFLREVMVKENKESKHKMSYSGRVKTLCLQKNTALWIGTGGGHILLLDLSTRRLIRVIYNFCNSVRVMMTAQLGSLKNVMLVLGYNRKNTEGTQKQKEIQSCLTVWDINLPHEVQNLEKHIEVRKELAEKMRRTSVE
T1 sequence (Q5S007 whole entry G2019S): as the sequence (Q5S007 whole entry) above, with G2019S counted along it

SMILES | IC50 (LRRK2 G2019S) | IC50 (LRRK2 WT)
N#Cc1ccc2c(c1)CCC2Nc1ccc2[nH]nc(-c3ccoc3)c2c1 (stereo not shown) [Example 10, 1-((3-(Furan-3-yl)-1H-indazol-5-yl)amino)-2,3-dihydro-1H-indene-5-carbonitrile] | < 100 nM | 100 to 1000 nM
N#Cc1ccc2c(c1)CC[C@@H]2Oc1ccc2[nH]nc(I)c2c1 [Example 13, 1-((3-Iodo-1H-indazol-5-yl)oxy)-2,3-dihydro-1H-indene-5-carbonitrile] | < 100 nM | 100 to 1000 nM
N#Cc1cnc2c(c1)CC(F)(F)C2Nc1ccc2[nH]nc(-c3cnco3)c2c1 (stereo not shown) [Example 34, 6,6-Difluoro-7-((3-(oxazol-5-yl)-1H-indazol-5-yl)amino)-6,7-dihydro-5H-cyclopenta[b]pyridine-3-carbonitrile] | < 100 nM | 100 to 1000 nM
N#Cc1ccc2c(c1)CCC[C@@H]2Nc1ccc2[nH]nc(-c3ccc4ncsc4c3)c2c1 [Example 59, 5-((3-(Benzo[d]thiazol-6-yl)-1H-indazol-5-yl)amino)-5,6,7,8-tetrahydronaphthalene-2-carbonitrile] | < 100 nM | < 100 nM

Second part, the molecule after the results:

IC50 (LRRK2 G2019S) | IC50 (LRRK2 WT) | SMILES
< 100 nM | < 100 nM | C[C@H]1CCc2cc(C#N)ccc2[C@H]1Nc1ccc2[nH]nc(-c3cnco3)c2c1 (single isomer, unassigned) [Example 173, enantiomer 1, cis-6-Methyl-5-((3-(oxazol-5-yl)-1H-indazol-5-yl)amino)-5,6,7,8-tetrahydronaphthalene-2-carbonitrile]
< 100 nM | 100 to 1000 nM | C[C@H]1CCc2cc(C#N)ccc2[C@H]1Nc1ccc2[nH]nc(-c3cnco3)c2c1 (single isomer, unassigned) [Example 173, enantiomer 2, cis-6-Methyl-5-((3-(oxazol-5-yl)-1H-indazol-5-yl)amino)-5,6,7,8-tetrahydronaphthalene-2-carbonitrile]
< 100 nM | < 100 nM | C[C@@H]1CCc2cc(C#N)ccc2[C@H]1Nc1ccc2[nH]nc(-c3cnco3)c2c1 (single isomer, unassigned) [Example 174, enantiomer 1, trans-6-Methyl-5-((3-(oxazol-5-yl)-1H-indazol-5-yl)amino)-5,6,7,8-tetrahydronaphthalene-2-carbonitrile]
< 100 nM | 100 to 1000 nM | C[C@@H]1CCc2cc(C#N)ccc2[C@H]1Nc1ccc2[nH]nc(-c3cnco3)c2c1 (single isomer, unassigned) [Example 174, enantiomer 2, trans-6-Methyl-5-((3-(oxazol-5-yl)-1H-indazol-5-yl)amino)-5,6,7,8-tetrahydronaphthalene-2-carbonitrile]
